Common to all, as to format: cell-based
Test [1] relates to ERK1/2 nuclear translocation. Nature of the test: Determination of ERK1/2 localization by fluorescence microscopy after TPA stimulation. The following applies: 10 μM, 2 hours, TPA 100 nM, 15 minutes. The method in brief: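 HeLa, A2185 and A2352 melanoma cells treated with compounds for 2 h around TPA stimulation, then fixed (4% PFA), permeabilized and stained with anti-ERK antibodies, fluorescent secondaries and DAPI. Nuclear ERK1/2 localization scored by fluorescence microscopy (×40).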

The test system of test [2] is ERK1/2 phosphorylated at the TEY activation loop motif. Nature of the test: Western blot, ERK1/2 activation loop (TEY) phosphorylation. The settings on record: 10 μM, 2 hours; TPA; A2185 or HeLa cells. The protocol: CoIP assay was conducted using αERK1 (C-terminus) antibodies conjugated to protein A/G agarose beads. The precipitates were analyzed by Western blot using the indicated antibodies. Whole cell lysates (WCL) and αIgG-mouse (IgG) are shown as controls. […] Cell extracts were analyzed by Western blot with the indicated antibodies. […] The same extracts described in (B) were subjected to Western blot analysis using αpAkt Abs. The closest molecular weight marker (kDa) is shown on the right of all relevant panels.
Bars indicate average of 2 independent experiments done in triplicate ±SE. […] Empty squares represent individual data points of proliferation. Full squares indicate average proliferation of 2 independent experiments done in triplicate ±SE. […] Cell viability (as shown in FIGS. 8A and 8B) was measured by staining with methylene blue, and data presents proliferation normalized to DMSO control. […] Cell lysates were analyzed by Western blot with the corresponding antibodies. Closest molecular marker is indicated at the right of each panel.
Preparation of Cellular Extracts and Western Blotting:
Cells were grown to 70% confluence and serum starved (0.1% FCS, 16 hours). After treatments, cells were rinsed twice with ice-cold PBS−/− and scraped into RIPA buffer. […]
(In western blotting, separated proteins are transferred to a membrane and probed.)

The test system of test [3] is A2185, A2352, HeLa and MCF7 cells. Nature of the test: Viability assay (methylene blue), four cancer lines. The following applies: 72 hours, 1% FCS, in 3 or 4 cell lines, read-out: reduction of cell viability. The protocol: Four cancer cells, A2185, A2352, HeLa and MCF7 were grown in 1% FCS containing 10 μM of either EPE peptide, or Compounds Z56, Z1, Z2 or Z3, for 72 hours. Bars indicate average of 2 independent experiments done in triplicate ±SE. FIG. 8B presents dose response curves for Compounds Z56, Z1 and Z2. A2185 cells were grown in 1% FCS containing DMSO (0.1%) EPE or Scramble (Scr) peptide (10 μM), Compounds Z56, Z1, Z2, Z3 ([…]) or no treatment (FCS 1%) for 72 hours. Empty squares represent individual data points of proliferation. Full squares indicate average proliferation of 2 independent experiments done in triplicate ±SE. Bold horizontal line indicates arbitrary threshold (40%) for what is considered an active compound. Cell viability (as shown in FIGS. 8A and 8B) was measured by staining with methylene blue, and data presents proliferation normalized to DMSO control. […] Cell lysates were analyzed by Western blot with the corresponding antibodies. […]
Cells were seeded at low confluence into 24, 48 or 96-well plates in complete medium. […] Color was extracted by adding 0.1 M HCl (3 hours, 23° C.), and absorbance measured at 595 nm in an ELISA reader. For time course experiments, attached cells were fixed and measured at 0, 24, 48, 72 and 96 hours. […]

Consider `O=C(OC1C=CS(=O)(=O)C1)c1ccccc1` (stereo not shown) [Compound Z2], for which the “nuclear accumulation of ERK1/2 upon TPA stimulation” value in test [1] (A2185 and A2352 cells) is given as “inhibited”. The “stimulated nuclear translocation of ERK1/2” value in test [1] (A2352, A2185 and HeLa cells) is listed as “significantly reduced”. In addition, in test [2], the “phosphorylation of the activation loop of ERK1/2” value is reported as “none of Compounds Z56, Z1, Z2 or Z3 affected”. Further, the cytotoxicity at 10 µM in test [3] is about 60%.

Values taken from patent US12286439B2, “Inhibitors of ERK nuclear translocation” (Yeda Research and Development Co. Ltd., priority 2018, dated 2025).
